Source: ChEMBL document CHEMBL4000252, “Discovery of N-(2-aminoethyl)-N-benzyloxyphenyl benzamides: New potent Trypanosoma brucei inhibitors” (Bioorg Med Chem, 2017)
pEC50, pIC50: −log10 of the molar value. Calls of active or inactive are those of the source. The rule behind the calls is not given here.

Legend:
[1] = system: Trypanosoma brucei brucei; assay: Antiparasitic activity against Trypanosoma brucei brucei BF427 assessed as growth inhibition after 48 hrs by Alamar blue assay; assay type: functional; conditions: BF427, 48 h
[2] = Cytotoxicity against human CRL8155 cells assessed as growth inhibition after 48 hrs by Alamar blue assay; assay type: cell-based; conditions: crl8155, 48 h
[3] = system: HepG2; assay: Cytotoxicity against human HepG2 cells assessed as growth inhibition after 48 hrs by Alamar blue assay; assay type: cell-based; conditions: hepg2, 48 h
[4] = system: Liver; assay: Half life in human liver microsomes at 1.5 uM by LC-MS analysis; assay type: ADME, microsome
[5] = system: Liver; assay: Half life in mouse liver microsomes at 1.5 uM by LC-MS analysis; assay type: ADME, microsome
[6] = Ratio of drug level in brain to plasma in mouse at 5 mg/kg, ip after 1 hr by LC-MS analysis; assay type: ADME, organism-based
[7] = Cmax in mouse at 50 mg/kg, po by LC-MS analysis; assay type: ADME, organism-based; design: dose 50 mg/kg, route oral; conditions: in vivo
[8] = AUC (0 to 8 hrs) in mouse at 50 mg/kg, po by LC-MS analysis; assay type: ADME, organism-based; design: dose 50 mg/kg, time < 8 hr, route oral; conditions: in vivo
[9] = system: Trypanosoma brucei rhodesiense; assay: Antiparasitic activity against Trypanosoma brucei rhodesiense STIB900 infected in Swiss-Webster mouse assessed as cure rate at 50 mg/kg, bid administered via oral gavage from day 2 to 5 post infection measured after 60 days by microscopic method relative to control; assay type: functional
[10] = system: Trypanosoma brucei brucei; assay: Antiparasitic activity against Trypanosoma brucei brucei TREU667 infected in mouse assessed as decrease in parasitemia at 50 mg/kg, bid administered via oral gavage on day 21 to 34 post infection measured on day 34 by microscopic method; assay type: functional, organism-based
[11] = system: Trypanosoma brucei brucei; assay: Antiparasitic activity against Trypanosoma brucei brucei TREU667 infected in mouse assessed as decrease in parasitemia at 50 mg/kg, bid administered via oral gavage on day 21 to 34 post infection measured on day 35 by microscopic method; assay type: functional, organism-based
[12] = system: Trypanosoma brucei brucei; assay: Antiparasitic activity against Trypanosoma brucei brucei TREU667 infected in mouse assessed as decrease in parasitemia at 50 mg/kg, bid administered via oral gavage on day 21 to 34 post infection measured on day 36 by microscopic method; assay type: functional, organism-based
[13] = system: Trypanosoma brucei brucei; assay: Antiparasitic activity against Trypanosoma brucei brucei TREU667 infected in mouse assessed as decrease in parasitemia at 50 mg/kg, bid administered via oral gavage on day 21 to 34 post infection measured on day 41 to 42 by microscopic method; assay type: functional, organism-based
[14] = system: Trypanosoma brucei brucei; assay: Antiparasitic activity against Trypanosoma brucei brucei BF427 assessed as growth inhibition at 16 times EC50 pretreated for 24 hrs followed by compound washout measured after 10 days by light microscopic method; assay type: functional
[15] = system: Trypanosoma brucei brucei; assay: Antiparasitic activity against Trypanosoma brucei brucei BF427 assessed as growth inhibition at 8 times EC50 pretreated for 48 hrs followed by compound washout measured after 10 days by light microscopic method; assay type: functional
[16] = system: Trypanosoma brucei brucei; assay: Antiparasitic activity against Trypanosoma brucei brucei BF427 assessed as growth inhibition at 8 times EC50 pretreated for 72 hrs followed by compound washout measured after 10 days by light microscopic method; assay type: functional
[17] = system: Trypanosoma brucei brucei; assay: Antiparasitic activity against Trypanosoma brucei brucei BF427 assessed as growth inhibition at 4 times EC50 pretreated for 96 hrs followed by compound washout measured after 10 days by light microscopic method; assay type: functional
[18] = system: Trypanosoma brucei brucei; assay: Antiparasitic activity against Trypanosoma brucei brucei BF427 assessed as growth inhibition at 32 times EC50 pretreated for 24 hrs followed by compound washout measured after 10 days by light microscopic method; assay type: functional
[19] = system: Trypanosoma brucei brucei; assay: Antiparasitic activity against Trypanosoma brucei brucei BF427 assessed as growth inhibition at 64 times EC50 pretreated for 48 hrs followed by compound washout measured after 10 days by light microscopic method; assay type: functional
[20] = system: Trypanosoma brucei brucei; assay: Antiparasitic activity against Trypanosoma brucei brucei BF427 assessed as growth inhibition at 64 times EC50 pretreated for 72 hrs followed by compound washout measured after 10 days by light microscopic method; assay type: functional
[21] = system: Trypanosoma brucei brucei; assay: Antiparasitic activity against Trypanosoma brucei brucei BF427 assessed as growth inhibition at 16 times EC50 pretreated for 96 hrs followed by compound washout measured after 10 days by light microscopic method; assay type: functional
[22] = system: Trypanosoma brucei brucei; assay: Antiparasitic activity against Trypanosoma brucei brucei BF427 assessed as growth inhibition at 128 times EC50 pretreated for 24 hrs followed by compound washout measured after 10 days by light microscopic method; assay type: functional
[23] = system: Trypanosoma brucei brucei; assay: Antiparasitic activity against Trypanosoma brucei brucei BF427 assessed as growth inhibition at 128 times EC50 pretreated for 48 hrs followed by compound washout measured after 10 days by light microscopic method; assay type: functional
[24] = system: Trypanosoma brucei brucei; assay: Antiparasitic activity against Trypanosoma brucei brucei BF427 assessed as growth inhibition at 64 times EC50 pretreated for 96 hrs followed by compound washout measured after 10 days by light microscopic method; assay type: functional
[25] = target: Cytochrome P450 3A4 (Homo sapiens, UniProt P08684); assay: Inhibition of human CYP3A4; assay type: ADME
Cytochrome P450 3A4, sequence (P08684 whole entry): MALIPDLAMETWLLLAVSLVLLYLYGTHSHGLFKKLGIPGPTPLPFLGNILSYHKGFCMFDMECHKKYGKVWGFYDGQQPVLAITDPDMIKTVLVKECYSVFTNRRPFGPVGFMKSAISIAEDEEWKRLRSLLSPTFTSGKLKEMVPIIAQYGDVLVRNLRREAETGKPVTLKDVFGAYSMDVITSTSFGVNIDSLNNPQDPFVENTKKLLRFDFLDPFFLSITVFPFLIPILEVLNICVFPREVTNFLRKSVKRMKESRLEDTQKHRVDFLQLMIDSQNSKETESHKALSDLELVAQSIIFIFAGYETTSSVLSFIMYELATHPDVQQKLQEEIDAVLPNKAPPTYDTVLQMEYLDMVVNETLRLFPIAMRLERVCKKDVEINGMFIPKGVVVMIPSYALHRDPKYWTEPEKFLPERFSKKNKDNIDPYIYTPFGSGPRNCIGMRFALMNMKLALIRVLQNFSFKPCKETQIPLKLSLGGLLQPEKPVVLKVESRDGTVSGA

[26] = system: Trypanosoma brucei brucei; assay: Antiparasitic activity against Trypanosoma brucei brucei BF427 assessed as growth inhibition at 32 times EC50 pretreated for 48 hrs followed by compound washout measured after 10 days by light microscopic method; assay type: functional
[27] = system: Trypanosoma brucei brucei; assay: Antiparasitic activity against Trypanosoma brucei brucei BF427 assessed as growth inhibition at 16 times EC50 pretreated for 72 hrs followed by compound washout measured after 10 days by light microscopic method; assay type: functional
[28] = system: Trypanosoma brucei brucei; assay: Antiparasitic activity against Trypanosoma brucei brucei BF427 assessed as growth inhibition at 32 times EC50 pretreated for 96 hrs followed by compound washout measured after 10 days by light microscopic method; assay type: functional

pEC50 [1]	t1/2 [4] [h]	BPR [6]	Cmax [7] [nM]	AUC(0-t) at 8 h [8] [µM·h]	Structure (SMILES)	CC50 [2] [µM]	CC50 [3] [µM]	Activity [9]	growth inhibition (GI) [14]	growth inhibition (GI) [20]	further results
8.70	> 1	0.16	1890	12.3	CC(C)c1ccc(COc2ccc(N(CCN)C(=O)c3cccnc3Cl)cc2)cc1.Cl	4.03	10.5	67 - 80%	Active	–	t1/2 [5]: > 1 h; Activity [10]: Active; Activity [11]: Active; Activity [12]: Active; Activity [13]: inactive; growth inhibition (GI) [15]: Active; growth inhibition (GI) [16]: Active; growth inhibition (GI) [17]: Active
7.82	0.65	0.06	2070	10.9	Cc1cc(C)cc(COc2ccc(N(CCN)C(=O)c3cccnc3Cl)cc2)c1.Cl.Cl	5.12	8.38	67 - 80%	–	Active	growth inhibition (GI) [18]: Active; growth inhibition (GI) [19]: Active; growth inhibition (GI) [21]: Active
8.15	> 1	0.88	1670	10.3	Cl.NCCN(C(=O)c1ccccc1C(F)(F)F)c1ccc(OCc2ccc(Cl)cc2)cc1	3.08	5.72	33%	–	Active	growth inhibition (GI) [22]: Active; growth inhibition (GI) [23]: Active; growth inhibition (GI) [24]: Active

Structure (SMILES)	pEC50 [1]	t1/2 [4] [h]	BPR [6]	Cmax [7] [nM]	AUC(0-t) at 8 h [8] [µM·h]	CC50 [2] [µM]	CC50 [3] [µM]	Activity [9]	growth inhibition (GI) [14]	growth inhibition (GI) [20]	further results
CC(C)c1ccc(COc2ccc(N(CCN)C(=O)c3ccc(Cl)cc3Cl)cc2)cc1.Cl	–	> 1	0.32	1490	21	3.1	3.19	67 - 80%	Active	–	pIC50 [25]: 7.82; growth inhibition (GI) [26]: Active; growth inhibition (GI) [27]: Active; growth inhibition (GI) [28]: Active
